Data: patent US20080009487A1, “Treatment of athersclerotic disease” (priority 2006, published 2008)
Entries after “also recorded” stand apart in the source; their conditions may differ.

Legend:
C. pneumoniae [1] = test: Rabbit model of atherosclerosis accelerated by C. pneumoniae infection, high cholesterol diet; assay type: in vivo; conditions: C. pneumoniae-infected rabbits; for infectious burden of Chlamydia in the vasculature (in words): versus placebo
Method: Thirty received three separate C. pneumoniae inoculations performed at 3-week intervals. Similarly, 15 control rabbits were intranasally inoculated with 1 mL of normal saline under the same conditions. [table] Nineteen weeks after beginning antibiotic treatment, the rabbits were euthanized. After euthanasia, hearts were examined histologically and by immunofluorescence. Animal serum samples were also examined for seropositivity to the infecting organism. […] In the current study, the time after infection and treatment with either azithromycin or rifalazil was increased by seven weeks, a more rigorous test for the durability of treatment. Consistent with previously published work, C. pneumoniae-infected rabbits accumulated more plaque than non-infected rabbits (p=0.08).

C. pneumoniae [2] = conditions: C. pneumoniae-infected rabbits, previously published study; cited from earlier work
[3] = assay type: physicochemical
Method: Rifalazil is a highly lipophilic molecule having limited solubility in water at physiological pH (approximately 200 ng/mL). Evidence of the highly lipophilic behavior of the molecule is illustrated in the partition coefficient (n-octanol:water) of between 70, 569 and over 900,000 in different experiments (Log P range; 4.9-5.9).

[4] = Degradation to 25-desacetyl derivative under acidic and basic conditions; assay type: physicochemical
Description: Rifalazil degrades to a 25-desacetyl derivative under both acidic and basic conditions. Typical of ester hydrolysis, the degradation in highly alkaline solutions is rapid while at an acidic pH, e.g., pH 1, the degradation at room temperature is slower, approximately 6% in one hour.

Chlamydia = test: Phase 2 study in men with non-gonococcal urethritis; assay type: in vivo; conditions: single oral dose
Description: (§1) Both preclinical and clinical lines of evidence support the use of rifalazil in the methods of the invention. […] In addition, based on overall safety data in animals and man, we believe that a dose of rifalazil can safely be administered, tolerated, and will likely result in clinical benefit through its anti-Chlamydia action in these patients.

C. pneumoniae [5] = test: Potency against C. pneumoniae relative to roxithromycin; assay type: cell-based; conditions: fold more potent than roxithromycin
Description: as §1

SMILES	infectious burden of Chlamydia in the vasculature (in words) (C. pneumoniae [1])	prevention of Chlamydia-induced plaque formation (in words) (C. pneumoniae [2])	partition coefficient (n-octanol:water) [3]	degradation to 25-desacetyl derivative ([4]; acidic pH 1, room temperature, in one hour)	degradation (ester hydrolysis) ([4]; highly alkaline solutions)	plaque area stenosis compared with placebo-treated animals (in words) (C. pneumoniae [1])	patients in whom Chlamydia was eradicated (Chlamydia)	potency against C. pneumoniae relative to roxithromycin (C. pneumoniae [5])
CC[C@H]1OC(=O)[C@H](C)[C@@H](O[C@H]2C[C@@](C)(OC)[C@@H](O)[C@H](C)O2)[C@H](C)[C@@H](O[C@@H]2O[C@H](C)C[C@H](N(C)C)[C@H]2O)[C@](C)(O)C[C@@H](C)CN(C)[C@H](C)[C@@H](O)[C@]1(C)O [azithromycin, reference compound]	reduced the infectious burden of Chlamydia in the vasculature	significant effect in preventing Chlamydia-induced plaque formation	–	–	–	–	–	–
CO[C@H]1/C=C/O[C@@]2(C)Oc3c(C)c(O)c4c(=O)c(c5oc6cc(N7CCN(CC(C)C)CC7)cc(O)c6nc-5c4c3C2=O)NC(=O)/C(C)=C\C=C\[C@H](C)[C@H](O)[C@@H](C)[C@@H](O)[C@@H](C)[C@H](OC(C)=O)[C@@H]1C [rifalazil, 3′-hydroxy-5′-(4-isobutyl-1-piperazinyl)benzoxazinorifamycin]	reduced C. pneumoniae burden; also recorded: reduced the infectious burden of Chlamydia in the vasculature	–	70, 569-900,000	approximately 6%	rapid	reduced C. pneumoniae burden and plaque area stenosis; also recorded: showed a trend in producing significantly reduced plaque area stenosis	> 86%	2000 times
